Data as given in ChEMBL document CHEMBL1137340, “Binding of 13-amidohuprines to acetylcholinesterase: exploring the ligand-induced conformational change of the gly117-gly118 peptide bond in the oxyanion hole” (J Med Chem, 2006).

Tests used:
Acetylcholinesterase [1] = target: T1, Acetylcholinesterase (Bos taurus, UniProt P23795)
T1 sequence (P23795 whole entry): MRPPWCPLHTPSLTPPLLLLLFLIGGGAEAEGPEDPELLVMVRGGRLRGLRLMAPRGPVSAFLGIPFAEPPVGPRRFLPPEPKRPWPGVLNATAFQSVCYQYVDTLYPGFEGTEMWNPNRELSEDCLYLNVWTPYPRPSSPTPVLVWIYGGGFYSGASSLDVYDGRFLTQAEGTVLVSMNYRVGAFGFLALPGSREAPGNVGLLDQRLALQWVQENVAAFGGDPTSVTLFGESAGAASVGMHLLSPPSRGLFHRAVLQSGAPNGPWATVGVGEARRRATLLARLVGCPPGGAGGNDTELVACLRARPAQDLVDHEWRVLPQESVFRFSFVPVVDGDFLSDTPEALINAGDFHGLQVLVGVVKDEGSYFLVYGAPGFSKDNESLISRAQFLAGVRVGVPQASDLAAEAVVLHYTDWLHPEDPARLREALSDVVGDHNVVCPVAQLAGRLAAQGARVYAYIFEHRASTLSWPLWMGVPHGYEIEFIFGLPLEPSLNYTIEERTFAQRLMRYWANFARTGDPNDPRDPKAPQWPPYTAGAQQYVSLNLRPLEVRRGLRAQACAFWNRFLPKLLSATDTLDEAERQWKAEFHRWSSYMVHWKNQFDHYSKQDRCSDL
Description: Inhibition of bovine erythrocyte AChE

Cholinesterase = Cholinesterase (Homo sapiens, UniProt P06276)
Sequence of Cholinesterase (P06276 whole entry): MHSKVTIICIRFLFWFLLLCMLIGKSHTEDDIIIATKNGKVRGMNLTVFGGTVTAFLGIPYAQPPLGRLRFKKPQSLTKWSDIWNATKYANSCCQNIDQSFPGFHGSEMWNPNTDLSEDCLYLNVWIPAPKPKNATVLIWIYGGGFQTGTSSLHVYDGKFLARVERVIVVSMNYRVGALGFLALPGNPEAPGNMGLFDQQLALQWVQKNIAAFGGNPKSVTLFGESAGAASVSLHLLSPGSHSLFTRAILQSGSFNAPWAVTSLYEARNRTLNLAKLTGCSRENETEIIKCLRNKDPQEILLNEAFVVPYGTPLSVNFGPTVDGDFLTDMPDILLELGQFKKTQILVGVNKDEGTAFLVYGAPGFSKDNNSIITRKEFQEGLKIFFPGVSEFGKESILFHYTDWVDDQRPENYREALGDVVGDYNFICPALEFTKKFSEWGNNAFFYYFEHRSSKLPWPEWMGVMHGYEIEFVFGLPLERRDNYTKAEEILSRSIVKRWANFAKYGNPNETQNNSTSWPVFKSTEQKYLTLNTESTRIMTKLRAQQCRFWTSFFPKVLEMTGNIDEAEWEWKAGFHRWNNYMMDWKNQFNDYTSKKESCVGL
Description: Inhibition of human serum BChE

Acetylcholinesterase [2] = target: T1, Acetylcholinesterase; remark: listed apart in the source
Description: Inhibition of bovine erythrocyte AChE after 45 mins

Acetylcholinesterase [3] = target: Acetylcholinesterase (Homo sapiens, UniProt P22303)
Sequence of Acetylcholinesterase (Homo sapiens, UniProt P22303) (P22303 whole entry): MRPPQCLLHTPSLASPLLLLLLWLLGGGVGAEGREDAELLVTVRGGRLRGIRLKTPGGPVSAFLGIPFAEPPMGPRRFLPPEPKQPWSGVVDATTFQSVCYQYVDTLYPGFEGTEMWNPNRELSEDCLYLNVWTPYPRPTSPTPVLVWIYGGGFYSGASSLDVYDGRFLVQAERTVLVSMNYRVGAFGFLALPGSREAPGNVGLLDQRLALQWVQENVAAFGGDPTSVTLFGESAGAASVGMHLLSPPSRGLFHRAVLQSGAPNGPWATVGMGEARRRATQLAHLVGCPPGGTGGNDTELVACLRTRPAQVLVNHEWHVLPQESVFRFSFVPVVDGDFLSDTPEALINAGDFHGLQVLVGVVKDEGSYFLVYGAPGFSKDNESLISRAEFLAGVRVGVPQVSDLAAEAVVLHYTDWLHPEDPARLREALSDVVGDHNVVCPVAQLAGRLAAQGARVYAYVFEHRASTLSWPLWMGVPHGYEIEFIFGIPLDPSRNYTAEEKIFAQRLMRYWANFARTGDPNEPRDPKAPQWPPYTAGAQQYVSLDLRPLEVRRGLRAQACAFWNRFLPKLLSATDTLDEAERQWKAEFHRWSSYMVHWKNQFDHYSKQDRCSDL
Description: Inhibition of human erythrocyte AChE

Row | SMILES | IC50 (Acetylcholinesterase [1]) [nM] | IC50 (Cholinesterase) [nM] | IC50 (Acetylcholinesterase [2]) [nM] | IC50 (Acetylcholinesterase [3]) [nM]
1 | CCC1=C[C@@H]2Cc3nc4cc(C)ccc4c(N)c3[C@H](C1)C2 | 4.5 | – | – | –
2 | CC1=C[C@@H]2Cc3nc4cc(Cl)ccc4c(N)c3[C@H](C1)C2 | 1.15 | – | – | –
3 | CC1=CC2Cc3nc4cc(Cl)ccc4c(N)c3C(C1)C2NC=O (racemic; form 2) | – | 3980 | – | –
4 | CC1=CC2Cc3nc4cc(Cl)ccc4c(N)c3C(C1)C2NS(C)(=O)=O (racemic; form 1) | 118 | > 10000 | 39 | 40.5
5 | CCC1=C[C@@H]2Cc3nc4ccccc4c(N)c3[C@H](C1)C2 | 27.4 | – | – | –
6 | CC1=CC2Cc3nc4cc(Cl)ccc4c(N)c3C(C1)C2N (racemic; form 2) | 482 | 601 | 478 | –
7 | CC(=O)NC1C2C=C(C)CC1c1c(nc3cc(Cl)ccc3c1N)C2 (racemic; form 2) | – | > 10000 | 1330 | –
8 | CC12CC3Cc4nc5cc(Cl)ccc5c(N)c4C(C1)C3N2S(C)(=O)=O (racemic) | 1320 | 9220 | 304 | –
9 | CCC1=CC2Cc3nc4cc(Cl)ccc4c(N)c3C(C1)C2 (racemic) | 2.77 | – | – | –
10 | CC1=CC2Cc3nc4cc(Cl)ccc4c(N)c3C(C1)C2NC=O (racemic; form 1) | – | > 10000 | – | 98
11 | CC12CC3Cc4nc5cc(Cl)ccc5c(N)c4C(C1)C3N2 (racemic) | 5680 | > 10000 | 4380 | –
12 | CC(=O)NC1C2C=C(C)CC1c1c(nc3cc(Cl)ccc3c1N)C2 (racemic; form 1) | 1690 | 8490 | 1370 | –
13 | CCC1=C[C@@H]2Cc3nc4cc(Cl)ccc4c(N)c3[C@H](C1)C2 | 1.3 | – | – | –
14 | CC1=CC2Cc3nc4cc(Cl)ccc4c(N)c3C(C1)C2N (racemic; form 1) | 389 | 6480 | 447 | 225
15 | CC1=CC2Cc3nc4cc(Cl)ccc4c(N)c3C(C1)C2NS(C)(=O)=O (racemic; form 2) | 1370 | – | 2450 | –
